From ChEMBL document CHEMBL4673346, “Discovery of a benzimidazole series as the first highly potent and selective ACSL1 inhibitors” (Bioorg Med Chem Lett, 2021)
pIC50: −log10 of the molar value. Values after ≈ are worked out from the molar mass of the structure shown.

Key:
[1] = AUC in rat at 0.5 mg/kg, iv; format: ADME, organism-based; parameters: dose 0.5 mg/kg; details: in vivo
[2] = molecular target: T1, Cytochrome P450 1A2 (Homo sapiens, UniProt P05177); assay: Inhibition of CYP1A2 (unknown origin); format: ADME
T1 sequence (P05177 whole entry): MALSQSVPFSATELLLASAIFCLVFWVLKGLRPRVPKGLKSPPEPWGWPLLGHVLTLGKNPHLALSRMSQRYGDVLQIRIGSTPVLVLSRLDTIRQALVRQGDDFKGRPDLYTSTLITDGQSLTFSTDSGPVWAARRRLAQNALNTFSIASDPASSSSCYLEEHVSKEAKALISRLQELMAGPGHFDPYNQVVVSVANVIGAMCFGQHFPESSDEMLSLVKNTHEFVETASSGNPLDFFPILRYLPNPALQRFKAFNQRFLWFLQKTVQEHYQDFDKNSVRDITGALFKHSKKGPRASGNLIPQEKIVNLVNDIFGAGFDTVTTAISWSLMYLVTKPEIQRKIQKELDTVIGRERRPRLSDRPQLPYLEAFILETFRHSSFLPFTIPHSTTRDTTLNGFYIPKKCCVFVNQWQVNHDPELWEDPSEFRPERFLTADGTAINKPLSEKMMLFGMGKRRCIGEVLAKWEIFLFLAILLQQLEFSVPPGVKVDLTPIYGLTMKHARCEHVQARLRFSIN

[3] = Fraction unbound in rat plasma; format: ADME, cell-free
[4] = Inhibition of insulin/isobutyl-1-methylxanthin/dexamethasone-induced adipocytes differentiation in mouse 3T3-L1 cells by measuring 14C-triglyceride levels incubated for 1 hrs followed by oleic acid addition and measured after 10 mins by microbeta scintillation counting method; format: functional; details: 3T3-L1, 1.167 h, time 70 min
[5] = Metabolic stability in human liver microsomes assessed as compound remaining after 30 mins; format: ADME, Microsome; details: read-out: Stabilty
[6] = molecular target: T2, Long-chain-fatty-acid--CoA ligase 1 (Mus musculus, UniProt P41216); assay: Inhibition of recombinant mouse ACSL1 assessed as reduction in […] prodution incubated for 90 mins in presence of Coenzyme A, ATP and MgCl2 by MALDI-TOF MS analysis
T2 sequence (P41216 whole entry): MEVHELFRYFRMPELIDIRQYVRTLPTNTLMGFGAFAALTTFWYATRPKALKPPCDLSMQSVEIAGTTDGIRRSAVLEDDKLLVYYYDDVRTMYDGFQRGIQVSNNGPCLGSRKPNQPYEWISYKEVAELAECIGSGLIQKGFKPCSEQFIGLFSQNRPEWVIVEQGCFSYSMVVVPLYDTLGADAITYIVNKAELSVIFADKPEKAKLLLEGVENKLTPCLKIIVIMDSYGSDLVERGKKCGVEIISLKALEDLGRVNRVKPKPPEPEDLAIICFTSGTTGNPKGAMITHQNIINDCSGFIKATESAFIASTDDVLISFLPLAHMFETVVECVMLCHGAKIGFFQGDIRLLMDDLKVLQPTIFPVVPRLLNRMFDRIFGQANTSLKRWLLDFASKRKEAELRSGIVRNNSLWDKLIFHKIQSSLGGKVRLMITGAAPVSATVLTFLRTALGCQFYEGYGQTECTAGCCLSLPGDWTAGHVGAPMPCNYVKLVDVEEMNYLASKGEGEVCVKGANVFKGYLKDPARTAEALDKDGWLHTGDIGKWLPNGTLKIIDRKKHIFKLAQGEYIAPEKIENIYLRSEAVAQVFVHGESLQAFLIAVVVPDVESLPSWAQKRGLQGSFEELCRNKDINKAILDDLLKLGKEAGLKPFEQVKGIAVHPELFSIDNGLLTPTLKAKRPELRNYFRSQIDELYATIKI

[7] = molecular target: Fatty acid CoA ligase Acsl3 (Homo sapiens, UniProt O95573); assay: Inhibition of recombinant human ACSL3 assessed as reduction in […] prodution incubated for 90 mins in presence of Coenzyme A, ATP and MgCl2 by MALDI-TOF MS analysis
Fatty acid CoA ligase Acsl3, sequence (O95573 whole entry): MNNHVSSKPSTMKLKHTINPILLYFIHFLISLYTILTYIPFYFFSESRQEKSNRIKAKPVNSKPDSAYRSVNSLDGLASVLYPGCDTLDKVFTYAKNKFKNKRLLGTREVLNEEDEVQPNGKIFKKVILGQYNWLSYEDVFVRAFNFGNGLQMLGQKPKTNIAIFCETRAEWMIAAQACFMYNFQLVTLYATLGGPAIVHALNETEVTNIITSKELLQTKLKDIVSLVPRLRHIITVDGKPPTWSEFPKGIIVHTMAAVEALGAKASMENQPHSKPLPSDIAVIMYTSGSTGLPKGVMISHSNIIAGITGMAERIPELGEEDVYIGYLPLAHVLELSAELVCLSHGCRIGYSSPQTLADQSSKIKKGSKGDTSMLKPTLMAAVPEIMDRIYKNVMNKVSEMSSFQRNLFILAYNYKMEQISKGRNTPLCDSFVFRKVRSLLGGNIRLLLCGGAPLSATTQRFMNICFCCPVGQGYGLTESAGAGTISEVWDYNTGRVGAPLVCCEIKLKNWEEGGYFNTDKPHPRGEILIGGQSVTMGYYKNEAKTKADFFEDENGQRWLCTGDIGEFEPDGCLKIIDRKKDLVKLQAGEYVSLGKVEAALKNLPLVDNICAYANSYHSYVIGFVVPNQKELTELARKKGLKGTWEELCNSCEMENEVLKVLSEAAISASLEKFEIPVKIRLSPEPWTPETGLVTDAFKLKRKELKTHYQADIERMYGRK

[8] = AUC in rat at 1 mg/kg, po; format: ADME, organism-based; parameters: dose 1 mg/kg; details: in vivo
[9] = molecular target: Cytochrome P450 2C19 (Homo sapiens, UniProt P33261); assay: Inhibition of CYP2C19 (unknown origin); format: ADME
Cytochrome P450 2C19, sequence (P33261 whole entry): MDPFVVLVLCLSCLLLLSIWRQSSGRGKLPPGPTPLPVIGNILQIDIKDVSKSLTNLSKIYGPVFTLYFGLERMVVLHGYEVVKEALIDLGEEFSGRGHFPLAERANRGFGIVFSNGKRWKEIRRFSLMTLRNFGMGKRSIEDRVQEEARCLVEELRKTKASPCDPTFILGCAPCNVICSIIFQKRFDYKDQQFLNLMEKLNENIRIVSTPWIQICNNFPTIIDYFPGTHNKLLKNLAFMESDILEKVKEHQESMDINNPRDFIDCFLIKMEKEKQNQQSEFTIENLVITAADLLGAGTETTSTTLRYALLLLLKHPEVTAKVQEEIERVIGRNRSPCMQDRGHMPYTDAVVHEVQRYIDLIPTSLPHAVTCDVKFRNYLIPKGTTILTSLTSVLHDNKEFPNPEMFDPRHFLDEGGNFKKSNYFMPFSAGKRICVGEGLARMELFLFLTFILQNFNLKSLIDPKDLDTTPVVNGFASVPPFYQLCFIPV

[10] = Solubility of compound in pH 1.2; format: physicochemical; details: buffer
[11] = molecular target: Cytochrome P450 3A4 (Homo sapiens, UniProt P08684); assay: Inhibition of CYP3A4 (unknown origin); format: ADME
Cytochrome P450 3A4, sequence (P08684 whole entry): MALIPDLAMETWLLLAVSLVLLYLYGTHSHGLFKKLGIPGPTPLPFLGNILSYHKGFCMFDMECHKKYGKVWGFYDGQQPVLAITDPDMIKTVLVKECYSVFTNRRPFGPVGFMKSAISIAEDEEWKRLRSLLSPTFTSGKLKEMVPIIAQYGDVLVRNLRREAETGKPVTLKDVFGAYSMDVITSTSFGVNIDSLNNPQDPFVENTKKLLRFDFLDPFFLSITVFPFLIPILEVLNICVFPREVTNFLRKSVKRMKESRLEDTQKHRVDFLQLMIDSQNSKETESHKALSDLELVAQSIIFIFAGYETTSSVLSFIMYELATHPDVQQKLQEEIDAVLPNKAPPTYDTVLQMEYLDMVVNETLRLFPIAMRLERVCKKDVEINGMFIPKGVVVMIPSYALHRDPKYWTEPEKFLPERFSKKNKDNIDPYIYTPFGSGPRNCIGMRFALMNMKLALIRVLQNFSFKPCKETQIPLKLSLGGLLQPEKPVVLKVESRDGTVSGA

[12] = Solubility of compound in pH 6.8 with TCA; format: physicochemical
[13] = molecular target: Cytochrome P450 2D6 (Homo sapiens, UniProt P10635); assay: Inhibition of CYP2D6 (unknown origin); format: ADME
Cytochrome P450 2D6, sequence (P10635 whole entry): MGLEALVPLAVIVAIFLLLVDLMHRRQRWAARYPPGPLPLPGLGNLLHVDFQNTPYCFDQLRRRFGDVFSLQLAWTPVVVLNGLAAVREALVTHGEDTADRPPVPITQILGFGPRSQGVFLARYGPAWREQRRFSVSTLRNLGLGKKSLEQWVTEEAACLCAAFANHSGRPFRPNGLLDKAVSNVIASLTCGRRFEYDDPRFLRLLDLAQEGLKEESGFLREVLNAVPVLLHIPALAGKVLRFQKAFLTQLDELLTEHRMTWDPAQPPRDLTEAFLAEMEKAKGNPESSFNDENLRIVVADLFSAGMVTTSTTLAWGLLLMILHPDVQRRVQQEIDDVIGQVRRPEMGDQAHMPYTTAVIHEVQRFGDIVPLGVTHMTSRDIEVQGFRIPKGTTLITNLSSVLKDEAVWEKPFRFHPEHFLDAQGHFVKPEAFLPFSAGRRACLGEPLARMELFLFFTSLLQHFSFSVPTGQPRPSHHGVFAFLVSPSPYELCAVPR

[14] = molecular target: Long-chain-fatty-acid--CoA ligase 4 (Homo sapiens, UniProt O60488); assay: Inhibition of recombinant human ACSL4 assessed as reduction in […] prodution incubated for 120 mins in presence of Coenzyme A, ATP and MgCl2 by MALDI-TOF MS analysis
Long-chain-fatty-acid--CoA ligase 4, sequence (O60488 whole entry): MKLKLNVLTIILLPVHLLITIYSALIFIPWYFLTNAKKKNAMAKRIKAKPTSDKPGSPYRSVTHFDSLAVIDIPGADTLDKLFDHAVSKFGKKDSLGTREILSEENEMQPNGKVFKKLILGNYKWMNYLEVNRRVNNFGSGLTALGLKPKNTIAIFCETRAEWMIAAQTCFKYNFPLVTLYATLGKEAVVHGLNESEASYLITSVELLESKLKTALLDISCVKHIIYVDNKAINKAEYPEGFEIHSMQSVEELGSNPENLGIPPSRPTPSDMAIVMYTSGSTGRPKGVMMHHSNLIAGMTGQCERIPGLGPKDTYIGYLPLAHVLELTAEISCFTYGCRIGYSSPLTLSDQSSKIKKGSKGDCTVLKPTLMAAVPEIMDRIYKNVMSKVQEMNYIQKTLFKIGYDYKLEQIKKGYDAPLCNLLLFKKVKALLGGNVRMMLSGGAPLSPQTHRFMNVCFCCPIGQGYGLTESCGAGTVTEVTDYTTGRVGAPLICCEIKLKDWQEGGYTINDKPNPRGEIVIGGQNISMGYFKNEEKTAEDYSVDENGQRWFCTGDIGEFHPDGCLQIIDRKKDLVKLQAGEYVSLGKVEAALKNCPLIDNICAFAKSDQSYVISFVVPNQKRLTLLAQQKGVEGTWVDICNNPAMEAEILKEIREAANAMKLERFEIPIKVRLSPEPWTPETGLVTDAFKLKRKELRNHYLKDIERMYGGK

[15] = Total clearance in rat at 0.5 mg/kg, iv; format: ADME, organism-based; details: in vivo
[16] = Cmax in rat at 1 mg/kg, po; format: ADME, organism-based; parameters: route oral, dose 1 mg/kg; details: in vivo
[17] = molecular target: T3, Long-chain-fatty-acid--CoA ligase 1 (Homo sapiens, UniProt P33121); assay: Inhibition of recombinant human ACSL1 assessed as reduction in […] prodution incubated for 90 mins in presence of Coenzyme A, ATP and MgCl2 by MALDI-TOF MS analysis
T3 sequence (P33121 whole entry): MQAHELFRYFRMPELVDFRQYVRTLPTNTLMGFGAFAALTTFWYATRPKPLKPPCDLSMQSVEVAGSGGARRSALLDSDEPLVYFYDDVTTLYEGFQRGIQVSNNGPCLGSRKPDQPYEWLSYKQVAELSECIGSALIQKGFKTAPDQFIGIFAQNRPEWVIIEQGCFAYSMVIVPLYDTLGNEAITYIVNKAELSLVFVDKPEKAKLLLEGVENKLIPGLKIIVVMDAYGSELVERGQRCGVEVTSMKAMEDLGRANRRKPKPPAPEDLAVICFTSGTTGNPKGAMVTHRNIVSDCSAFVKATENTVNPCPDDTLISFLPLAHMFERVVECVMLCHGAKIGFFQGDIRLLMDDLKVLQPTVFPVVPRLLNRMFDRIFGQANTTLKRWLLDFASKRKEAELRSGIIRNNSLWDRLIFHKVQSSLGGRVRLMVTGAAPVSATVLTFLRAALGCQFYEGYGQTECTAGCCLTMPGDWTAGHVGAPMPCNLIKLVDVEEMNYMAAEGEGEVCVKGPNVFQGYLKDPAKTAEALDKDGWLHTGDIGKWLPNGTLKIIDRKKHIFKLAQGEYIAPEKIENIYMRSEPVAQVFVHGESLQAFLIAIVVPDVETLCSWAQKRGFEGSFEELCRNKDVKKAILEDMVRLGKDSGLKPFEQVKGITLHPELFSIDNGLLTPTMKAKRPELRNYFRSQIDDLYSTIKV

[18] = Metabolic stability in rat liver microsomes assessed as compound remaining after 30 mins; format: ADME, Microsome; details: read-out: Stabilty
[19] = system: Mus musculus; assay: In vivo inhibition of ACSL1 in mouse assessed as reduction in acyl-coA production in liver administered orally using palmitic acid as substrate and measured after 17 hrs; format: functional, organism-based; details: dose 0.3-1 mg/kg

AUC [1]: 4970 ng·h/mL | pIC50 [2]: < 4.70 | fraction unbound [3]: 0.017 | remaining at 0.5 h [5]: 96% | pIC50 [6]: 7.52 | pIC50 [7]: < 3.70 | AUC [8]: 11800 ng·h/mL | pIC50 [9]: < 4.70 | solubility [10]: 307 µg/mL (≈ 811 µM) | pIC50 [11]: < 4.70 | solubility [12]: 24 µg/mL (≈ 63.4 µM) | pIC50 [13]: < 4.70 | pIC50 [14]: < 3.70 | clearance [15]: 1.75 mL/min/kg | Cmax [16]: 1110 ng/mL | pIC50 [17]: 7.38 | remaining at 0.5 h [18]: 93%
Structure (SMILES): Cc1cccc(Cc2nc3cc(O[C@H]4CC[C@@H](C(=O)O)CC4)ccc3n2C)c1
IC30 [4]: 0.039 µM | inhibition [19]: Dose-dependent effect
